This passage reports MIC results from patent publication US20260274892A1, “MACROCYCLIC BROAD SPECTRUM ANTIBIOTICS” (RQx Pharmaceuticals, Inc., priority 2017, published 2026).

For assay [1], the system named is Methicillin Resistant Staphylococcus aureus strain USA 200. Put plainly: Minimum inhibitory concentration (MIC), CLSI broth micro-dilution, S. aureus. The format is cell-based. To be noted: Staphylococcus aureus, MRSA / USA200; Table 6; MRSA USA 200; cation adjusted Mueller Hinton Broth + 0.002% Tween-80; 35° C., 22 hours. In outline:
(§1)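 Colonies grown 20 h at 35° C on Trypticase Soy agar (MRSA) or Luria agar (E. coli) were suspended in cation-adjusted Mueller Hinton broth with 0.002% Tween-80. Suspensions were added at OD600 0.0005 to 10-point twofold compound dilutions, then incubated 22 h at 35° C.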
(Broth dilution looks for growth in wells or tubes with falling amounts of substance.)

In assay [2] the test system is Escherichia coli ATCC 25922. Briefly: Minimum inhibitory concentration (MIC), CLSI broth micro-dilution, E. coli. The format is cell-based. To be noted: Escherichia coli, ATCC25922, 22 h, Table 6, cation adjusted Mueller Hinton Broth + 0.002% Tween-80, 35° C. In a few lines:
as §1

As to `COC(C)(C)c1ccc(-c2nc(C)c(C(=O)N[C@@H](CCN)C(=O)N(C)[C@@H]3C(=O)N[C@@H](C)C(=O)N[C@H](C(=O)NCC#N)Cc4ccc(OCCN)c(c4)-c4cc3ccc4OCCN)c(C)n2)cc1` (racemic) [Compound 267, rac-(8S,11S,14S)-3,18-bis(2-aminoethoxy)-N-(cyanomethyl)-11-methyl-14-[methyl-[rac-(2S)-4-amino-2-[[2-[4-(1-methoxy-1-methyl-ethyl)phenyl]-4,6-dimethyl-pyrimidine-5-carbonyl]amino]butanoyl]amino]-10,13-dioxo-9,12-diazatricyclo[13.3.1.12,6]icosa-1(18),2(20),3,5,15(19),16-hexaene-8-carboxamide], the MIC came to 0.39 µM in assay [1] and 1 µM in assay [2].
In the case of `CCCCc1ccc(-c2nc(C)c(C(=O)N[C@@H](CCN)C(=O)N(C)[C@@H]3C(=O)N[C@@H](C)C(=O)N[C@H](C(=O)NCC#N)Cc4ccc(OCCN)c(c4)-c4cc3ccc4OCCN)c(C)n2)cc1CCCC` (racemic) [Compound 268, rac-(8S,11S,14S)-3,18-bis(2-aminoethoxy)-N-(cyanomethyl)-11-methyl-14-[methyl-[rac-(2S)-4-amino-2-[[2-(3,4-dibutylphenyl)-4,6-dimethyl-pyrimidine-5-carbonyl]amino]butanoyl]amino]-10,13-dioxo-9,12-diazatricyclo[13.3.1.12,6]icosa-1(18),2(20),3,5,15(19),16-hexaene-8-carboxamide], the MIC in assay [1] was found to be 0.016 µM; in assay [2], 0.12 µM.
Regarding `Cc1nc(-c2ccc3c(c2)CCC3(C)C)nc(C)c1C(=O)N[C@@H](CCN)C(=O)N(C)[C@@H]1C(=O)N[C@@H](C)C(=O)N[C@H](C(=O)NCC#N)Cc2ccc(OCCN)c(c2)-c2cc1ccc2OCCN` (racemic) [Compound 269, rac-(8S,11S,14S)-3,18-bis(2-aminoethoxy)-N-(cyanomethyl)-11-methyl-14-[methyl-[rac-(2S)-4-amino-2-[[2-(1,1-dimethylindan-5-yl)-4,6-dimethyl-pyrimidine-5-carbonyl]amino]butanoyl]amino]-10,13-dioxo-9,12-diazatricyclo[13.3.1.12,6]icosa-1(18),2(20),3,5,15(19),16-hexaene-8-carboxamide], the results for the MIC in assay [1] and in assay [2] were 0.016 µM and 0.094 µM, respectively.
Turning to `Cc1nc(-c2ccc3c(c2)CCCC3(C)C)nc(C)c1C(=O)N[C@@H](CCN)C(=O)N(C)[C@@H]1C(=O)N[C@@H](C)C(=O)N[C@H](C(=O)NCC#N)Cc2ccc(OCCN)c(c2)-c2cc1ccc2OCCN` (racemic) [Compound 270, rac-(8S,11S,14S)-3,18-bis(2-aminoethoxy)-N-(cyanomethyl)-11-methyl-14-[methyl-[rac-(2S)-4-amino-2-[[2-(1,1-dimethyltetralin-6-yl)-4,6-dimethyl-pyrimidine-5-carbonyl]amino]butanoyl]amino]-10,13-dioxo-9,12-diazatricyclo[13.3.1.12,6]icosa-1(18),2(20),3,5,15(19),16-hexaene-8-carboxamide], the MIC in assay [1] is 0.012 µM; in assay [2] it was 0.064 µM.
Turning to `Cc1nc(-c2ccc3c(c2)OCCC3(C)C)nc(C)c1C(=O)N[C@@H](CCN)C(=O)N(C)[C@@H]1C(=O)N[C@@H](C)C(=O)N[C@H](C(=O)NCC#N)Cc2ccc(OCCN)c(c2)-c2cc1ccc2OCCN` (racemic) [Compound 271, rac-(8S,11S,14S)-3,18-bis(2-aminoethoxy)-N-(cyanomethyl)-11-methyl-14-[methyl-[rac-(2S)-4-amino-2-[[2-(4,4-dimethylchroman-7-yl)-4,6-dimethyl-pyrimidine-5-carbonyl]amino]butanoyl]amino]-10,13-dioxo-9,12-diazatricyclo[13.3.1.12,6]icosa-1(18),2(20),3,5,15(19),16-hexaene-8-carboxamide], the MIC in assay [1] amounted to 0.032 µM; in assay [2], 0.26 µM.
`CC(C)=C(C)c1ccc(-c2nc(C)c(C(=O)N[C@@H](CCN)C(=O)N(C)[C@@H]3C(=O)N[C@@H](C)C(=O)N[C@H](C(=O)NCC#N)Cc4ccc(OCCN)c(c4)-c4cc3ccc4OCCN)c(C)n2)cc1` (racemic) [Compound 272, rac-(8S,11S,14S)-3,18-bis(2-aminoethoxy)-N-(cyanomethyl)-11-methyl-14-[methyl-[rac-(2S)-4-amino-2-[[2-[4-(1,2-dimethylprop-1-enyl)phenyl]-4,6-dimethyl-pyrimidine-5-carbonyl]amino]butanoyl]amino]-10,13-dioxo-9,12-diazatricyclo[13.3.1.12,6]icosa-1(18),2(20),3,5,15(19),16-hexaene-8-carboxamide]: the figures for the MIC in assay [1] and in assay [2] were 0.012 µM and 0.065 µM, respectively.
On to `CC(C)=Cc1ccc(-c2nc(C)c(C(=O)N[C@@H](CCN)C(=O)N(C)[C@@H]3C(=O)N[C@@H](C)C(=O)N[C@H](C(=O)NCC#N)Cc4ccc(OCCN)c(c4)-c4cc3ccc4OCCN)c(C)n2)cc1` (racemic) [Compound 273, rac-(8S,11S,14S)-3,18-bis(2-aminoethoxy)-N-(cyanomethyl)-11-methyl-14-[methyl-[rac-(2S)-4-amino-2-[[4,6-dimethyl-2-[4-(2-methylprop-1-enyl)phenyl]pyrimidine-5-carbonyl]amino]butanoyl]amino]-10,13-dioxo-9,12-diazatricyclo[13.3.1.12,6]icosa-1(18),2(20),3,5,15(19),16-hexaene-8-carboxamide], for which the values for the MIC in assay [1] and in assay [2] were 0.0082 µM and 0.099 µM, respectively.
Regarding `Cc1nc(-c2ccc(C=C3CCCC3)cc2)nc(C)c1C(=O)N[C@@H](CCN)C(=O)N(C)[C@@H]1C(=O)N[C@@H](C)C(=O)N[C@H](C(=O)NCC#N)Cc2ccc(OCCN)c(c2)-c2cc1ccc2OCCN` (racemic) [Compound 274, rac-(8S,11S,14S)-3,18-bis(2-aminoethoxy)-N-(cyanomethyl)-11-methyl-14-[methyl-[rac-(2S)-4-amino-2-[[2-[4-(cyclopentylidenemethyl)phenyl]-4,6-dimethyl-pyrimidine-5-carbonyl]amino]butanoyl]amino]-10,13-dioxo-9,12-diazatricyclo[13.3.1.12,6]icosa-1(18),2(20),3,5,15(19),16-hexaene-8-carboxamide], the MIC in assay [1] is 0.023 µM; in assay [2], 0.063 µM.
On the same counts, the results for `Cc1nc(-c2ccc(CC3CCCC3)cc2)nc(C)c1C(=O)N[C@@H](CCN)C(=O)N(C)[C@@H]1C(=O)N[C@@H](C)C(=O)N[C@H](C(=O)NCC#N)Cc2ccc(OCCN)c(c2)-c2cc1ccc2OCCN` (racemic) [Compound 275, rac-(8S,11S,14S)-3,18-bis(2-aminoethoxy)-N-(cyanomethyl)-11-methyl-14-[methyl-[rac-(2S)-4-amino-2-[[2-[4-(cyclopentylmethyl)phenyl]-4,6-dimethyl-pyrimidine-5-carbonyl]amino]butanoyl]amino]-10,13-dioxo-9,12-diazatricyclo[13.3.1.12,6]icosa-1(18),2(20),3,5,15(19),16-hexaene-8-carboxamide] are 0.012 µM and 0.094 µM.

The MIC is the lowest concentration that inhibits growth of the organism.
